From US11306064B2, “Benzothia(di)azepine compounds and their use as bile acid modulators” (Albireo AB, priority 2018, dated 2022) come the findings set out here.

Common to all, as to assay type: cell-based
One assay concerns HepaRG cells. Briefly: HepaRG-based assay: 3H-taurocholic acid uptake in differentiated HepaRG cells. The following applies: Homo sapiens, HepaRG, 0.3 μM 3H-taurocholic acid and 7.5 μM cold taurocholic acid, 30 minutes. On the procedure: HepaRG-Based Assay Protocol
A cryopreserved vial of differentiated HepaRG cells (Biopredic International HPR116080) was thawed in HepaRG Thawing/Plating/General Purpose Medium (Biopredic International ADD670C) supplemented with 200 mM Glutamax (Gibco 35050061) following the protocol provided by Biopredic International. 70,000 cells per well were seeded in 96-wells plate (Corning CLS3809) in 100 μL of HepaRG Thawing/Plating/General Purpose Medium supplemented with 200 mM Glutamax and incubated at 37° C. in 5% CO2 for 24 hours. Post incubation, the seeding media was replaced by HepaRG Maintenance/Metabolism Medium (Biopredic International ADD620C) and incubated for 6 days, with fresh HepaRG Maintenance/Metabolism Medium replenishment every 48 hours. After 7 days incubation post seeding, incubation media was decanted from the wells and cells were washed two times with 250 μL of William's E Basal Media (Gibco 12551032). After decanting William's E Basal Media each time, plates were tapped against paper towel to ensure maximum removal of residual media.
Incubation mix was prepared by adding test inhibitor dilutions (3-fold serial dilution in DMSO (Sigma D2650)) in William's E media (basal) containing 0.3 μM 3H-taurocholic acid (ARC ART-1368) and 7.5 μM cold taurocholic acid (Sigma T4009) (maintaining 0.2% final DMSO concentration). 50 μl of incubation mix containing test inhibitors was then added to the wells (in duplicate) and the plates were incubated for 30 minutes in 5% CO2 incubator at 37° C. After incubation, the reaction was stopped by keeping the plates on ice water mix for 2-3 minutes and then the incubation mix was aspirated completely from the wells. The wells were washed two times with 250 μL of chilled unlabelled 1 mM taurocholic acid dissolved in HEPES (Gibco 15630080)-buffered (10 mM) HBSS (Gibco 14175079) (pH 7.4). The plates were tapped against a paper towel after every wash to ensure maximum removal of blocking buffer.
(§1) 100 μL of MicroScint-20 (PerkinElmer 6013621) was added to the wells and kept overnight at room temperature before reading the plates in TopCount NXT™ Microplate Scintillation and Luminescence Counter from PerkinElmer under 3H Test protocol (set at 120 seconds reading time per well, with normal plate orientation).
(§2) Preparation of Test Compound Dilutions
(§3) All test compounds were provided in powder form at room temperature. 10 mM DMSO stocks of the test compounds were prepared, aliquoted and stored at −20° C. From the 10 mM DMSO stock of the compounds, a 3-fold serial dilution in DMSO was prepared to get a total of 10 dilutions of the test compounds. 0.5 μL of this dilution in DMSO was added to 250 μL of FBS-free basal media containing 3H-taurocholic acid and cold taurocholic acid to prepare the incubation mixture.

For a further assay, the target named is T1, Human LBAT (Homo sapiens, UniProt Q14973).
T1 construct: expressed in transfected cells; kept under Geneticin selection
T1 sequence (Q14973 1-349): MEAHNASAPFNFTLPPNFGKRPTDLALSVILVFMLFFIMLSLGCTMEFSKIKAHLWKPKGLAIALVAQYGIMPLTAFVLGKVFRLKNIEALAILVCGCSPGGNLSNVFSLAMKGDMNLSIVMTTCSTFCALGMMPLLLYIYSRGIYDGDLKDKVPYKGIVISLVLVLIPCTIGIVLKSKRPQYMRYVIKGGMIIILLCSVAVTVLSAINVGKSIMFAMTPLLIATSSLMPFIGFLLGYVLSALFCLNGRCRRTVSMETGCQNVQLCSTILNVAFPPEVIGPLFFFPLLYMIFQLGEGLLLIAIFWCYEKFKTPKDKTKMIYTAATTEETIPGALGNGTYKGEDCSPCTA
Briefly: LBAT (h/m) assay: 3H-taurocholic acid uptake in human LBAT-overexpressing cells. The following applies: 0.3 μM 3H-taurocholic acid and 7.5 μM cold taurocholic acid, 20 minutes, read-out: hLBAT IC50. On the procedure: LBAT (h/m) Assay Protocol
20,000 cells (Human or Mouse LBAT-overexpressing cells) were seeded in 96-wells plate (Corning CLS3809) in 100 μL MEM-alpha medium (Gibco 12571-063) supplemented with 10% FBS (Gibco 10438026) containing Geneticin (Gibco 10131-027) (1 mg/mL) and incubated at 37° C. in 5% CO2 for 24 hours. After incubation, media was decanted from the wells and cells were washed two times with 300 μL of basal MEM-alpha medium (FBS-free). After decanting basal MEM-alpha medium each time, plates were tapped against paper towel to ensure maximum removal of residual media. For human LBAT, incubation mix was prepared by adding test inhibitor dilutions (3-fold serial dilution in DMSO (Sigma D2650), 10 points) in MEM-alpha (without FBS) containing 0.3 μM 3H-taurocholic acid (ARC ART-1368) and 7.5 μM cold taurocholic acid (Sigma T4009) (maintaining 0.2% final DMSO concentration). For mouse LBAT, incubation mix was prepared by adding test inhibitor dilutions (3-fold serial dilution in DMSO, 10 points) in MEM-alpha (without FBS) containing 0.3 μM 3H-taurocholic acid and 25 μM cold taurocholic acid maintaining 0.2% final DMSO concentration).
50 μL of incubation mix containing test inhibitors was then added to the wells (in duplicate) and the plates were incubated for 20 minutes in a CO2 incubator at 37° C. After incubation, the reaction was stopped by keeping the plates on ice water mix for 2-3 minutes and then the incubation mix was aspirated completely from the wells. The wells were washed two times with 250 μL of chilled unlabelled 1 mM taurocholic acid dissolved in HEPES (Gibco 15630080)-buffered (10 mM) HBSS (Gibco 14175079) (pH 7.4). The plates were tapped against a paper towel after every wash to ensure maximum removal of blocking buffer.
as §1, §2, §3

Another assay has as its target T2, Human ASBT (Homo sapiens, UniProt Q12908).
T2 construct: expressed in transfected cells; kept under Puromycin selection
T2 sequence (Q12908 1-348): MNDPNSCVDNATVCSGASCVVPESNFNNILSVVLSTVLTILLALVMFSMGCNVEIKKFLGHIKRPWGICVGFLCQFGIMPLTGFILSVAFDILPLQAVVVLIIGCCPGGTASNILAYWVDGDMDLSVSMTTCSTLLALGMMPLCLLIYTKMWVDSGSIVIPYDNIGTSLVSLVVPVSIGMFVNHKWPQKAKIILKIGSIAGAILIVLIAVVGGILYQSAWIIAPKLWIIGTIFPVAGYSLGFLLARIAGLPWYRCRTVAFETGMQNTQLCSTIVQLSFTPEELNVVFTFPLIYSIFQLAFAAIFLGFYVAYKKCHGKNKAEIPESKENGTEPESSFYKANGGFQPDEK
The assay is described as follows: ASBT (h/m) assay: 3H-taurocholic acid uptake in human ASBT-overexpressing cells. The following applies: 0.25 μM 3H-taurocholic acid and 5 μM cold taurocholic acid, 20 minutes, read-out: hASBT IC50. As to the method: ASBT (h/m) Assay Protocol
10,000 cells (Human or Mouse ASBT-overexpressing cells) were seeded in 96-wells plate (Corning CLS3809) in 200 μL MEM-alpha medium (Gibco 12571-063) supplemented with 10% FBS (Gibco 10438026) containing Puromycin (Gibco A1113803) (10 μg/mL) and incubated at 37° C. in 5% CO2 for 48 hours. After incubation, media was decanted from the wells and cells were washed two times with 300 μL of basal MEM-alpha medium (FBS-free). After decanting basal MEM-alpha medium each time, plates were tapped against paper towel to ensure maximum removal of residual media. Test inhibitor dilutions (highest test concentration being 10 μM, 3-fold serial dilution, 10 points) prepared in DMSO (Sigma D2650) were added in incubation mix (maintaining 0.2% final DMSO concentration) containing 0.25 μM 3H-taurocholic acid (ARC ART-1368) and 5 μM of cold taurocholic acid (Sigma T4009). 50 μL of incubation mix containing test inhibitors was then added to the wells (in duplicate) and the plates were incubated for 20 minutes in a CO2 incubator at 37° C. After incubation, the reaction was stopped by keeping the plates on ice water mix for 2-3 minutes and then the incubation mix was aspirated completely from the wells. The wells were washed two times with 250 μL of chilled unlabelled 1 mM taurocholic acid dissolved in HEPES (Gibco 15630080)-buffered (10 mM) HBSS (Gibco 14175079) (pH 7.4). The plates were tapped against a paper towel after every wash to ensure maximum removal of blocking buffer.
100 μL of MicroScint-20 (PerkinElmer 6013621) was added to the wells and kept overnight at room temperature before reading the plates in TopCount NXT™ Microplate Scintillation and Luminescence Counter from PerkinElmer under 3H Test protocol (set at 120 seconds reading time per well).
as §2, §3

A word on the IC50: it is the concentration that inhibits the measured activity by half. On to `CCCC[C@]1(CC)CN(c2ccccc2)c2cc(SC)c(O/C=C/C(=O)O)cc2S(=O)(=O)N1C` (single isomer, unassigned) [Example 90], for which the half-maximal inhibitory concentration (IC50) stood at 1400 nM with HepaRG cells and 49 nM at Human LBAT.

Turning to `CCCCC1(CCCC)CN(c2ccc(O)cc2)c2cc(SC)c(O/C=C/C(=O)O)cc2S(=O)(=O)C1` [Example 20, (E)-3-((3,3-dibutyl-5-(4-hydroxyphenyl)-7-(methylthio)-1,1-dioxido-2,3,4,5-tetrahydro-1,5-benzothiazepin-8-yl)oxy)acrylic Acid], the IC50 turned out to be 20 nM on Human ASBT and 1300 nM on Human LBAT.

As for `CCCCC1(CCCC)CN(c2ccc(NCc3ccccc3)cc2)c2cc(SC)c(O/C=C/C(=O)O)cc2S(=O)(=O)C1` [Example 22, (E)-3-((5-(4-(benzylamino)phenyl)-3,3-dibutyl-7-(methylthio)-1,1-dioxido-2,3,4,5-tetrahydro-1,5-benzothiazepin-8-yl)oxy)acrylic Acid], the IC50 in the assay on HepaRG cells worked out at 2140 nM; at Human LBAT it was 343 nM.

As to `CCCCC1(CCCC)CN(c2ccccc2)c2cc(SCC)c(O/C=C/C(=O)O)cc2S(=O)(=O)C1` [Example 67, (E)-3-((3,3-dibutyl-7-(ethylthio)-1,1-dioxido-5-phenyl-2,3,4,5-tetrahydro-1,5-benzothiazepin-8-yl)oxy)acrylic Acid], the IC50 at Human ASBT came to 192 nM; at Human LBAT, 461 nM.

With `CCCCC1(CCCC)CN(c2ccccc2)c2cc(Br)c(O/C=C/C(=O)O)cc2S(=O)(=O)N1` [Example 75, (E)-3-((7-bromo-3,3-dibutyl-1,1-dioxido-5-phenyl-2,3,4,5-tetrahydro-1,2,5-benzothiadiazepin-8-yl)oxy)acrylic Acid], the IC50 turned out to be 148 nM at Human ASBT and 349 nM on Human LBAT.

As for `CCCCC1(CC)CN(c2ccccc2)c2cc(N(C)C)c(O/C=C/C(=O)O)cc2S(=O)(=O)C1` (stereo not drawn) [Example 80, (E)-3-((3-butyl-7-(dimethylamino)-3-ethyl-1,1-dioxido-5-phenyl-2,3,4,5-tetrahydro-1,5-benzothiazepin-8-yl)oxy)acrylic Acid], the values for the IC50 on Human ASBT and on Human LBAT were 7.5 nM and 828 nM, respectively.

As for `CCCCC1(CCCC)CN(c2ccccc2)c2cc(F)c(O/C=C/C(=O)O)cc2S(=O)(=O)C1` [Example 81, (E)-3-((3,3-dibutyl-7-fluoro-1,1-dioxido-5-phenyl-2,3,4,5-tetrahydro-1,5-benzothiazepin-8-yl)oxy)acrylic Acid], the values for the IC50 at Human ASBT and at Human LBAT were 771 nM and 210 nM, respectively.

For the molecule `CCCCC1(CCCC)CN(c2ccccc2)c2cc(C#N)c(O/C=C/C(=O)O)cc2S(=O)(=O)C1` [Example 82, (E)-3-((3,3-dibutyl-7-cyano-1,1-dioxido-5-phenyl-2,3,4,5-tetrahydro-1,5-benzothiazepin-8-yl)oxy)acrylic Acid], the IC50 at Human ASBT amounted to 873 nM; on Human LBAT, 270 nM.

`CCCCC1(CCCC)CN(c2ccccc2)c2cc(SC)c(O/C(C)=C/C(=O)O)cc2S(=O)(=O)N1` [Example 83, (E)-3-((3,3-dibutyl-7-(methylthio)-1,1-dioxido-5-phenyl-2,3,4,5-tetrahydro-1,2,5-benzothiadiazepin-8-yl)oxy)but-2-enoic Acid]: the concentration for half-maximal inhibition (IC50) on Human ASBT is 18 nM; at Human LBAT, 4920 nM.

For the molecule `CCCCC1(CCCC)CN(c2ccc(Br)cc2)c2cc(SC)c(O/C=C(\F)C(=O)O)cc2S(=O)(=O)C1` [Example 94, (Z)-3-((5-(4-bromophenyl)-3,3-dibutyl-7-(methylthio)-1,1-dioxido-2,3,4,5-tetrahydro-1,5-benzothiazepin-8-yl)oxy)-2-fluoroacrylic Acid], the 50% inhibitory concentration (IC50) on Human ASBT is 42 nM; on Human LBAT it was 96 nM.

`CCCCC1(CCCC)CN(c2ccccc2)c2cc(N(C)C)c(O/C=C(\F)C(=O)O)cc2S(=O)(=O)N1` [Example 97, (Z)-3-((3,3-dibutyl-7-(dimethylamino)-1,1-dioxido-5-phenyl-2,3,4,5-tetrahydro-1,2,5-benzothiadiazepin-8-yl)oxy)-2-fluoroacrylic Acid]: the IC50 on Human ASBT came out at 9 nM; at Human LBAT, 341 nM.

In the case of `CCCCC1(CCCC)CN(c2ccc(C(=O)N(C)C)cc2)c2cc(SC)c(O/C=C(\F)C(=O)O)cc2S(=O)(=O)C1` [Example 104, (Z)-3-((3,3-dibutyl-5-(4-(dimethylcarbamoyl)phenyl)-7-(methylthio)-1,1-dioxido-2,3,4,5-tetrahydro-1,5-benzothiazepin-8-yl)oxy)-2-fluoroacrylic Acid], the values for the concentration for half-maximal inhibition (IC50) on Human ASBT and at Human LBAT were 3330 nM and 290 nM, respectively.
